Reference: article PMC9970268 (Cancer Research Communications, 2022)

Legend:
MCF7 breast cancer cells = test: Cell viability (MTT) assay; assay type: cell-based, human; settings: 250 nmol/L, 120 hr
Procedure: (§1) Using CellTiter 96 Non-Radioactive Cell Proliferation Assay (Promega, Corp.) according to manufactures’ instructions, formazan was used as an indicator of viable cells at an absorbance 570 nm in a Tecan Microplate Reader M100 (Tecan). Data were calculated as fold change from vehicle and transformed to logarithm base 10. 0 concentration was replaced with 1 nmol/L to fit using the 4-parameter logic nonlinear regression model in GraphPad Prism software. (n = 3 biologic replicates: with three technical replicates each).
Supplementary Figure S1. Percentage cell viability of MDA-MB-231, GFP-HER2-BM, […]
nM for 120 hr. The bar graphs are presented as individual fold change data points from vehicle and grouped mean ± SEM. (n = 3; *, P < 0.05; ** P < 0.01).
(1 picture or pasted object on this page, not shown here)

MDA-MB-231 cells [1] = test: Phalloidin staining of F-actin, cell phenotype; assay type: cell-based, human; settings: 250 nmol/L, 12 hours
Source text: Cells were fixed, permeabilized, and stained with rhodamine phalloidin to visualize F-actin as described previously ([23]). Fluorescence micrographs were acquired at 40× in a Keyence fluorescence microscope.

[2] = system: GFP-HER2-BM mammary fatpad tumors; test: Orthotopic spontaneous metastasis mouse model; assay type: in vivo; settings: for weight and liver toxicity (aspartate transaminase and alanine transaminase from plasma): 5× a week at 5 mg/kg for 53 days
Procedure: All animal studies were conducted under approved protocol A8180118 Institutional Animal Care and Use Committee, in accordance with the NIH Guideline for the Care and Use of Laboratory Animals. Female SCID mice, 3–4 weeks old (Charles River Laboratories, Inc.), were maintained under pathogen-free conditions in High Efficiency Particulate Air (HEPA)-filtered cages.
GFP-HER2-BM (∼7 × 10^5) cells in Matrigel (BD Biosciences) were injected at the fourth right mammary fat pad under isoflurane inhalation (1%–3% in oxygen using an inhalation chamber at 2 L/minute) to produce orthotopic primary tumors. After tumor establishment (1-week after inoculation), animals were randomly divided into treatment groups (n = 5).
[…]. Treatments continued until sacrifice at day 53.
Mammary tumor growth was quantified by integrated density of GFP fluorescence. After tumor establishment, mice were imaged before starting treatment, and once a week thereafter for 53 days, using the iBoxScientia (Analytik-Jena GmbH). Tumor fluorescence intensities were analyzed using ImageJ software (NIH, Bethesda, MD). Relative tumor growth was calculated as the integrated density of fluorescence of each tumor on each day of imaging relative to the integrated density of fluorescence of the same tumor on day 1 of treatment. After sacrifice at day 60, lungs, kidneys, livers, and spleens were excised and immediately stored in liquid N2. To quntify metastasis, stored organs were thawed and analyzed, as whole organs on both sides, using an Olympus MV10 fluorescence macro zoom system microscope and images acquired with an Olympus DP71 digital camera. The fluorescent lesions (green component of RGB images) were quantified for integrated density of fluorescent pixels using Image J software.

A549 lung cancer cells = test: EGF-induced ruffle formation; assay type: cell-based, human; settings: 24 hours, then EGF 200 ng/mL; for loss in ruffles: 500 nmol/L; for decrease in ruffles: 1,000 nmol/L
Procedure: Cells were fixed with 4% formaldehyde and F-actin stained with rhodamine phalloidin. Slides were visualized by fluorescence microscopy and five random fields were scored for the number of ruffles. Ruffle area was measured by thresholding for single intensity using ImageJ/Fiji software, as in ref. [29].

[3] = molecular target: T1, Cdc42(G15A) interaction with Ect2 (Homo sapiens, UniProt P60953, G15A); test: Cdc42 (G15A) pulldown assay, Ect2; assay type: binding; settings: 250 nmol/L, 1 hour preincubation, MDA-MB-231 cell lysates
T1 construct: purchased Cell Biolabs; host or cells: GEF from MDA-MB-231 lysate
T1 sequence (P60953 whole entry G15A): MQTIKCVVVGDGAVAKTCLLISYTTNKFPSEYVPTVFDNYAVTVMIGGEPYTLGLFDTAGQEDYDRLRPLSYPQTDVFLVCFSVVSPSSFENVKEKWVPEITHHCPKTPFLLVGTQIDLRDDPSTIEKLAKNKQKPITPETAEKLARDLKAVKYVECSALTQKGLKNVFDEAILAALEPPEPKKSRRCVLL
Procedure: MDA-MB-231 cells were lysed in 1% Triton X-100, 20 mmol/L HEPES, pH 7.4, 150 mmol/L NaCl, 5 mmol/L MgCl2, and protease inhibitors, and processed as described previously ([20]). Equal amounts of protein from cleared lysates were incubated for 1 hour at 4°C with glutathione-agarose beads conjugated to GST-Rac1 and GST-Cdc42(G15A) nucleotide-free mutant (Cell Biolabs) that were preincubated (for 1 hour) with vehicle or Rac/Cdc42 inhibitors, as indicated. The beads were washed, and pulldowns were immunoblotted for Vav2 or Ect2.

HMEC cells = test: Cell viability (MTT) assay; assay type: cell-based, human; settings: 120 hours, 0 to 1,000 nmol/L
Procedure: as §1

[4] = system: Rac, Cdc42, RhoA, PAK, and p-PAK; test: Western blot of tumor lysates from treated mice; assay type: in vivo, SCID mice; settings: GFP-HER2-BM tumors, 5 mg/kg BW, 53 days
Source text: Treatments continued until sacrifice at day 53.
Total cell lysates or pulldowns were Western blotted using routine procedures. The primary antibodies used were anti-Rac (Cell Signaling Technology), anti-Cdc42 (Abcam), anti-PAK1+PAK2+PAK3 (Cell Signaling Technology), anti-pPAK1 (T423)/PAK2 (T402; Abcam), anti-PAK1 + PAK2 + PAK3 (phospho T423; Abcam), Rac1B, and β-actin (Millipore-Sigma).

MDA-MB-231 cells [5] = test: Cell viability (MTT) assay; assay type: cell-based, human; settings: for inhibition of cell viability: 250 nmol/L, 120 hr; for GI50: 120 hours, 0 to 1,000 nmol/L
Procedure: as §1
(§2) All half maximal growth inhibitory concentration (GI50) values were determined by using the 4-parameter logistic curve model in GraphPad Prism 9 software. Statistical analyses were done also using GraphPad Prism 9 software, and differences were considered statistically significant at P ≤ 0.05 using ordinary one-way ANOVA or unpaired Student t test with Dunnet multiple comparison tests.

GFP-HER2-BM cells = test: Cell viability (MTT) assay; assay type: cell-based, human; settings: for GI50: 0 to 1,000 nmol/L
Procedure: as §1, §2

MCF10A cells = test: Cell viability (MTT) assay; assay type: cell-based, human; settings: for inhibition of cell viability: 250 nmol/L, 120 hr; for GI50: Homo sapiens, MCF-10A, 120 hours, 0 to 1,000 nmol/L
Procedure: as §1, §2

[6] = 5 mg/kg BW, intraperitoneal, 53 days

| SMILES | inhibition of cell viability (MCF7 breast cancer cells) [%] | cell phenotype, actin cytoskeleton (MDA-MB-231 cells [1]) | inhibition in tumor growth compared with vehicle [2, 6] | weight and liver toxicity (aspartate transaminase and alanine transaminase from plasma) [2] | loss in ruffles (A549 lung cancer cells) [%] | decrease in ruffles (A549 lung cancer cells) [%] | Cdc42(G15A) interaction with Ect2 [3] | effect on viability of HMECs (HMEC cells) | Cdc42 and RhoA levels [4] | reduction of Thr 423 phosphorylation in PAKs 1, 2, 3 compared with vehicle [4] | reduction of p-Serine 141,144,154 levels in PAK1, 2, and 3 [4] | total Rac, and PAK1/2/3 levels [4] | inhibition of cell viability (MDA-MB-231 cells [5]) [%] | inhibition of cell viability (GFP-HER2-BM cells; 250 nmol/L, 120 hr) | inhibition of cell viability (GFP-HER2-BM cells; 500 nmol/L, 72 hours) | inhibition of cell viability (MCF10A cells) [%] | GI50 (MCF10A cells) [nM] | also measured |
| --- | --- | --- | --- | --- | --- | --- | --- | --- | --- | --- | --- | --- | --- | --- | --- | --- | --- | --- |
| CCn1c2ccccc2c2cc(-n3nncc3-c3ccccc3)ccc21 [MBQ-167] | 40 | acquired a round shape with punctate actin staining | approximately 90% | did not significantly change weight or liver toxicity | 54 | 63 | no effect | did not affect the viability of HMECs | remain unaffected | approximately 50% | did not show changes | Decreases were observed | 50 | approximately 85% | approximately 75% | 30 | 296 | inhibition of lung, liver, and kidney metastases compared with vehicle [2, 6]: approximately 90%; GI50 (MDA-MB-231 cells [5]): ~160 nM; GI50 (MDA-MB-231 cells [5]; Homo sapiens, MDA-MB-231, 120 h): 162 nM; GI50 (GFP-HER2-BM cells; 120 hours): ~160 nM; GI50 (GFP-HER2-BM cells; Homo sapiens, 120 h): 163 nM |
| CCn1c2ccccc2c2cc(-n3nncc3-c3cccc(OC)c3)ccc21 [MBQ-168] | 40 | acquired a round shape with punctate actin staining | approximately 90% | did not significantly change weight or liver toxicity | 67 | 79 | no effect | did not affect the viability of HMECs | remain unaffected | approximately 50% | approximately 75% | Decreases were observed | 50 | approximately 85% | approximately 75% | 30 | 304 | GI50 (MDA-MB-231 cells [5]; Homo sapiens, MDA-MB-231): 199 nM; GI50 (GFP-HER2-BM cells; Homo sapiens, 120 hours): 171 nM |
